Converted amounts (≈) assume the structure as drawn. The source made the active and inactive calls. No cut-off for these calls is given here.
Tests used:
Micrococcus luteus [1] = assay: Antibacterial activity against Sarcina lutea ATCC 9341 after 48 hrs by serial dilution technique; format: functional; details: ATCC 9341, 48 h
[2] = test system: Agrobacterium tumefaciens; assay: Antibacterial activity against Agrobacterium tumefaciens A 281 after 48 hrs by serial dilution technique; format: functional; details: A 281, 48 h
Escherichia coli = assay: Antibacterial activity against Escherichia coli ATCC 35218 after 48 hrs by serial dilution technique; format: functional; details: ATCC 35218, 48 h
Pseudomonas aeruginosa = assay: Antibacterial activity against Pseudomonas aeruginosa clinical isolate after 48 hrs by serial dilution technique; format: functional
Candida albicans = assay: Antifungal activity against Candida albicans clinical isolate after 48 hrs by serial dilution technique; format: functional
Micrococcus luteus [3] = assay: Antibacterial activity against Micrococcus luteus clinical isolate after 48 hrs by serial dilution technique; format: functional
Pseudomonas tolaasii = assay: Antibacterial activity against Pseudomonas tolaasii after 48 hrs by serial dilution technique; format: functional
Staphylococcus aureus = assay: Antibacterial activity against Staphylococcus aureus ATCC 6538 after 48 hrs by serial dilution technique; format: functional; details: ATCC 6538, 48 h
Proteus mirabilis = assay: Antibacterial activity against Proteus mirabilis clinical isolate after 48 hrs by serial dilution technique; format: functional, organism-based
Salmonella enterica = assay: Antibacterial activity against Salmonella enteritidis ATCC 13076 after 48 hrs by serial dilution technique; format: functional, Salmonella enterica subsp. enterica serovar Enteritidis; details: ATCC 13076, 48 h
Bacillus cereus = assay: Antibacterial activity against Bacillus cereus clinical isolate after 48 hrs by serial dilution technique; format: functional
SF-268 [4] = assay: Cytotoxicity against human SF268 at 100 uM cells after 48 hrs by SRB assay; format: functional, cell-based
NCI-H460 [5] = assay: Cytotoxicity against human H460 cells at 100 uM after 48 hrs by SRB assay; format: functional, cell-based
MCF7 [6] = assay: Cytotoxicity against human MCF7 cells at 100 uM after 48 hrs by SRB assay; format: functional, cell-based
SF-268 [7] = assay: Cytotoxicity against human SF268 cells after 48 hrs by SRB assay; format: functional; details: SF-268, 48 h
MCF7 [8] = assay: Cytotoxicity against human MCF7 cells after 48 hrs by SRB assay; format: functional; details: MCF7, 48 h
NCI-H460 [9] = assay: Cytotoxicity against human H460 cells after 48 hrs by SRB assay; format: functional; details: NCI-H460, 48 h

Row | Structure (SMILES) | MIC (Micrococcus luteus [1]) [µg/mL] | MIC [2] [µg/mL] | MIC (Escherichia coli) [µg/mL] | MIC (Pseudomonas aeruginosa) [µg/mL] | MIC (Candida albicans) [µg/mL] | MIC (Micrococcus luteus [3]) [µg/mL] | MIC (Pseudomonas tolaasii) [µg/mL] | MIC (Staphylococcus aureus) [µg/mL] | MIC (Proteus mirabilis) | MIC (Salmonella enterica) [µg/mL] | MIC (Bacillus cereus) [µg/mL] | LC50 (SF-268 [4]) | LC50 (NCI-H460 [5]) | TGI (NCI-H460 [5]) | GI50 (SF-268 [7]) [µM] | also measured
1 | C=C1C(=O)O[C@H]2CC(=C)[C@@H](O)CC/C(C)=C/[C@@H](O)[C@H]12 [TATRIDIN B] | 6.25 (≈ 23.6 µM) | 25 (≈ 94.6 µM) | 25 (≈ 94.6 µM) | 25 (≈ 94.6 µM) | 25 (≈ 94.6 µM) | 6.25 (≈ 23.6 µM) | 25 (≈ 94.6 µM) | 0.625 (≈ 2.36 µM) | inactive | 25 (≈ 94.6 µM) | 6.25 (≈ 23.6 µM) | – | – | – | – | –
2 | C=C1C(=O)O[C@H]2C[C@]3(C)[C@H](O)CCC(=C)[C@@H]3[C@@H](O)[C@H]12 [ANTHEMIN B] | – | – | – | – | – | – | – | – | – | – | – | inactive | inactive | inactive | 52.3 | GI50 (NCI-H460 [5]): inactive; GI50 (MCF7 [6]): inactive; LC50 (MCF7 [6]): inactive; TGI (MCF7 [6]): inactive; TGI (SF-268 [7]): 80.3 µM
3 | C=C1C(=O)O[C@H]2/C=C(\C)[C@@H](O)CC/C(C)=C/[C@@H](O)[C@H]12 [TATRIDIN A] | 6.25 (≈ 23.6 µM) | 25 (≈ 94.6 µM) | 25 (≈ 94.6 µM) | 25 (≈ 94.6 µM) | 25 (≈ 94.6 µM) | 6.25 (≈ 23.6 µM) | 25 (≈ 94.6 µM) | 0.625 (≈ 2.36 µM) | inactive | 25 (≈ 94.6 µM) | 6.25 (≈ 23.6 µM) | – | – | – | – | –
4 | CN[C@@H]1[C@H](O[C@H]2[C@H](O[C@H]3[C@H](O)[C@@H](O)[C@H](N=C(N)N)[C@@H](O)[C@@H]3N=C(N)N)O[C@@H](C)[C@]2(O)C=O)O[C@@H](CO)[C@H](O)[C@H]1O [STREPTOMYCIN] | 50 (≈ 86 µM) | 100 (≈ 172 µM) | 100 (≈ 172 µM) | – | – | 50 (≈ 86 µM) | 200 (≈ 344 µM) | – | inactive | 200 (≈ 344 µM) | 50 (≈ 86 µM) | – | – | – | – | –
5 | C=C1C(=O)O[C@H]2C[C@@]3(C)[C@H](O)CC[C@@](C)(O)[C@@H]3[C@@H](O)[C@H]12 | 6.25 (≈ 22.1 µM) | 25 (≈ 88.5 µM) | 25 (≈ 88.5 µM) | 50 (≈ 177 µM) | – | 12.5 (≈ 44.3 µM) | 25 (≈ 88.5 µM) | 1.25 (≈ 4.43 µM) | inactive | 25 (≈ 88.5 µM) | 12.5 (≈ 44.3 µM) | inactive | inactive | inactive | 40.3 | TGI (SF-268 [4]): inactive; GI50 (NCI-H460 [5]): inactive; GI50 (MCF7 [6]): inactive; LC50 (MCF7 [6]): inactive; TGI (MCF7 [6]): inactive
6 | CC[C@]1(O)C[C@@H]2CN(CCc3c([nH]c4ccccc34)[C@@](C(=O)OC)(c3cc4c(cc3OC)N(C)[C@H]3[C@@](O)(C(=O)OC)[C@H](OC(C)=O)[C@]5(CC)C=CCN6CC[C@]43[C@@H]65)C2)C1 [VINBLASTINE] | – | – | – | – | – | – | – | – | – | – | – | – | – | – | < 0.01 | GI50 (MCF7 [8]): < 0.01 µM; TGI (MCF7 [8]): 1.6 µM; GI50 (NCI-H460 [9]): < 0.01 µM; TGI (NCI-H460 [9]): 0.35 µM; TGI (SF-268 [7]): 1.64 µM; CC50 (SF-268 [7]; read-out: LC50 (the source's name)): 2.48 µM
7 | C=C1C(=O)O[C@H]2/C=C(\C)[C@@H](O)CC[C@@]3(C)O[C@@H]3[C@H](O)[C@H]12 | 6.25 (≈ 22.3 µM) | 25 (≈ 89.2 µM) | 25 (≈ 89.2 µM) | 50 (≈ 178 µM) | – | 12.5 (≈ 44.6 µM) | 25 (≈ 89.2 µM) | 1.25 (≈ 4.46 µM) | inactive | 25 (≈ 89.2 µM) | 12.5 (≈ 44.6 µM) | – | – | – | – | –
8 | c1ccc(-c2ccc(C(c3ccccc3)n3ccnc3)cc2)cc1 (centres undefined) [BIFONAZOLE] | – | – | – | – | 200 (≈ 644 µM) | – | – | – | inactive | – | – | – | – | – | – | –
9 | C=C1C(=O)O[C@H]2C[C@@]3(C)[C@H](C(=C)CC[C@@H]3O)[C@@H](O)[C@H]12 [ELEGALACTONE A] | – | – | – | – | – | 50 (≈ 189 µM) | – | 50 (≈ 189 µM) | inactive | – | – | inactive | inactive | inactive | 76 | TGI (SF-268 [4]): inactive; GI50 (NCI-H460 [5]): inactive; GI50 (MCF7 [6]): inactive; LC50 (MCF7 [6]): inactive; TGI (MCF7 [6]): inactive
10 | C=C1C[C@@H]2OC(=O)C(=C)[C@H]2[C@@H](O)/C=C(\C)CCC1=O [ANTHEMIN C] | 25 (≈ 95.3 µM) | – | – | – | – | 12.5 (≈ 47.7 µM) | – | 1.25 (≈ 4.77 µM) | inactive | – | 12.5 (≈ 47.7 µM) | – | – | – | – | –
11 | C=C1C(=O)O[C@H]2C[C@@]3(C)[C@H](O)CCC(=C)[C@@H]3[C@@H](O)[C@H]12 | 6.25 (≈ 23.6 µM) | 25 (≈ 94.6 µM) | 25 (≈ 94.6 µM) | 25 (≈ 94.6 µM) | 25 (≈ 94.6 µM) | 6.25 (≈ 23.6 µM) | 25 (≈ 94.6 µM) | 0.625 (≈ 2.36 µM) | inactive | 25 (≈ 94.6 µM) | 6.25 (≈ 23.6 µM) | inactive | inactive | inactive | 42.7 | TGI (SF-268 [4]): inactive; GI50 (MCF7 [8]): 52.3 µM; LC50 (MCF7 [8]): 85.8 µM; TGI (MCF7 [8]): 64.2 µM; GI50 (NCI-H460 [9]): 69 µM

Reference: ChEMBL document CHEMBL1154913, “Sesquiterpene lactones from Anthemis melanolepis and their antibacterial and cytotoxic activities. Prediction of their pharmacokinetic profile” (2010)
